Test results as given in publication PMC4580469, “Expression and Purification of Human Membrane Progestin Receptor α (mPRα)” (PLoS ONE, 2015).

Molecular target: T1, human membrane progestin receptor α (hmPRα) (Homo sapiens, UniProt Q86WK9)
T1 construct: gene PAQR7; DDM-solubilized and purified over Ni-NTA, Cellufine Amino and SP-Sepharose; ~50 kDa band, theoretical 52 kDa with signal
T1 sequence (Q86WK9 1-346): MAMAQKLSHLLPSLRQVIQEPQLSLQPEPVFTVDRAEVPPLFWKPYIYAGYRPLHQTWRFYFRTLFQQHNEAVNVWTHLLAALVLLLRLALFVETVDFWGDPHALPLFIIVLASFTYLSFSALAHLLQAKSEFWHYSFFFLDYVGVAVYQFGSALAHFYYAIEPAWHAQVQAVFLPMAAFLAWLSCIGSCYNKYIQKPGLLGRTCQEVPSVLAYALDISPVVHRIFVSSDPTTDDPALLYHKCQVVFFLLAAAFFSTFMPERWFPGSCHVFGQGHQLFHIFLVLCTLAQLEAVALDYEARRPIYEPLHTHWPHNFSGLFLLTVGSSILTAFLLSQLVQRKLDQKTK
Assay: radioligand saturation filter binding, Scatchard analysis

CC(=O)[C@H]1CC[C@H]2[C@@H]3CCC4=CC(=O)CC[C@]4(C)[C@H]3CC[C@]12C [progesterone]
Kd: 5.2 nM
